In patent US4927809A, “Oligopeptidyl nitrile derivatives, agents containing them and their use” (Behringwerke Aktiengesellschaft, priority 1986, dated 1990):

Tests used:
[1] = target: T1, alpha human thrombin (Homo sapiens, UniProt P00734); assay: Determination of the thrombin time (concentration doubling the thrombin time) in standard human plasma; type: biochemical; settings: pH 7.6, 37° C., alpha human thrombin 3.0 IU/ml
T1 construct: alpha human thrombin
Procedure: The activity of the substances prepared as in Examples 1, 2 or 3 was ascertained by determination of the thrombin time. This entailed the concentration (in μmol/l) which doubled the thrombin time being ascertained.
50 μl of inhibitor solution of various concentrations, 50 μl of standard human plasma and 100 μl of diethylbarbituric acid/sodium acetate buffer, pH 7.6, were incubated at 37° C. for 45 seconds and 100 μl of alpha human thrombin (3.0 IU/ml) were added. The tests were carried out on a Schnitger & Gross apparatus for determination of the thrombin time.

[2] = system: mice; settings: mouse, in vivo, iv
Procedure: The toxicity of H-D-Phe-Pro-Arg-CN × 2HCOOH […] in an animal model. The test substance was administered i.v. to mice. Clinically detectable pathological findings were found at and above a dose of 50 mg/kg. The dose for a therapeutic effect ought to be about 1-4 mg/kg.

[3] = target: T1, alpha human thrombin; assay: Inhibition constant (Ki) against alpha human thrombin; type: biochemical

Row | Structure (SMILES) | Doubling of the thrombin time at concentration (final conc.) [1] [µmol/L] | Dose at and above which clinically detectable pathological findings were found [2] [mg/kg] | Ki [3] [nM]
1 | CC(C)(C)OC(=O)N[C@H](Cc1ccccc1)C(=O)N1CCC[C@H]1C(=O)NC(C#N)CCCNC(=N)N (stereo partly drawn) [Example 1, N(alpha)-Boc-D-Phenylalanyl-L-prolyl-L-(1-amino-4-guanidino)valeronitrile] | 3.66 |  | 
2 | N#CC(CCCNC(=N)N)NC(=O)[C@@H]1CCCN1C(=O)[C@@H](Cc1ccccc1)NC(=O)OCC1c2ccccc2-c2ccccc21 (stereo partly drawn) [Example 2, N(alpha)-Fmoc-D-Phenylalanyl-L-prolyl-L-(1-amino-4-guanidino)valeronitrile] | 3.66 |  | 
3 | N#CC(CCCNC(=N)N)NC(=O)[C@@H]1CCCN1C(=O)[C@H](N)Cc1ccccc1.O=C(O)C(F)(F)F.O=C(O)C(F)(F)F (stereo partly drawn) [Example 3, H-D-Phenylalanyl-L-prolyl-L-(1-amino-4-guanidino)valeronitrile ditrifluoroacetate] | 1.1 |  | 
4 | N#C[C@H](CCCNC(=N)N)NC(=O)[C@@H]1CCCN1C(=O)[C@H](N)Cc1ccccc1.O=CO.O=CO [H-D-Phe-Pro-Arg-CN × 2HCOOH] |  | ≥ 50 | 600
